From patent US10231472B2, “Zilpaterol animal premix formulation” (Intervet Inc., priority 2015, dated 2019)
Structures can show the parent of a compound that is named as a salt.

Experiments:
[1] = Stability of zilpaterol in liquid vehicles at high temperature; format: physicochemical
Experimental: (§1) However since solubility of the drug was poor in propylene glycol, a significant additional amount of propylene glycol was needed (27.6%) to fully solubilize the drug. Since propylene glycol is viscous/sticky, this larger amount of propylene glycol could not be added to the corn cob carrier without causing the product to be sticky which results in poor flow properties. To address this problem, a premix containing only 6% propylene glycol and 2% water was prepared by heating the liquid mixture of zilpaterol HCl to a high temperature and creating a supersaturation of zilpaterol HCl in the propylene glycol/water vehicle. This was successful in fully solubilizing the zilpaterol HCl without needing to add additional liquids. […] When this hot supersaturated solution is added to a dry carrier, it is easily absorbed and mixed and the combination becomes dry and free flowing. Excellent uniformity is obtained, and product safety is improved since free solid drug particles are avoided.
Propylene glycol is the preferred solvent.

[2] = Solubility of zilpaterol HCl in solvents; format: physicochemical
Experimental: For some drugs that have a good solubility profile formulations can be prepared by dissolving the drug into a solvent and then mixing the resulting solution with additional excipient/carriers to prepare a suitable dosage form (premix, tablets, etc.). This approach works best when the drug concentration is very low and the drug has good solubility. If an excess amount of liquid is added during manufacture a wet mass can be formed that is difficult to process and needs to be dried to remove excess solvent. Drying adds additional cost and complexity to the manufacturing process.
as §1

CC(C)NC1CCn2c(=O)[nH]c3cccc(c32)C1O (centres unmarked) [Zilpaterol HCl, 4,5,6,7-tetrahydro-7-hydroxy-6-(isopropylamino) imidazo[4,5,1-jk]-[1]benzazepin-2(1H)-one]
stability in propylene glycol alone ([1]; after 45 days at 60° C., propylene glycol alone): 95.2% | stability in solution, temperature ([1]; supersaturated solution in propylene glycol/water vehicle): ≤ 90 °C | solubility of the drug in premix liquid ([2]; premix with 0.8% zilpaterol HCl, 6% propylene glycol and 2% water, without heating): not fully soluble | solubility in propylene glycol ([2]; propylene glycol): 2.9% | solubility ([2]; water): 130 mg/mL
